Measured values published in ChEMBL document CHEMBL6114996, “Design, synthesis, and biological evaluation of β-carboline derivatives as ABCB1 inhibitors for reversing multidrug resistance” (Eur J Med Chem, 2025).

Legend:
SW620/AD300 = experiment: Cytotoxicity against human SW620/AD300 cells assessed as reduction in cell viability at 20 uM incubated for 72 hrs by CCK-8 assay relative to control; format: functional
[1] = Reversal fold, ratio of PTX IC50 to PTX IC50 in presence of test compound for reversal of multi-drug resistance in human SW620/AD300 cells incubated for 72 hrs by CCK-8 assay (reference value: 1.0); format: functional
[2] = target: T1, ATP-dependent translocase ABCB1 (Homo sapiens, UniProt P08183); experiment: Binding affinity to ABCB1 (unknown origin) in human SW620/AD300 cells assessed as thermal stabilization at 20 uM at 40 to 65 degreeC incubated for 30 mins by CETSA; format: cell-based; conditions: sw620/ad300, 0.5 h
T1 sequence (P08183 whole entry): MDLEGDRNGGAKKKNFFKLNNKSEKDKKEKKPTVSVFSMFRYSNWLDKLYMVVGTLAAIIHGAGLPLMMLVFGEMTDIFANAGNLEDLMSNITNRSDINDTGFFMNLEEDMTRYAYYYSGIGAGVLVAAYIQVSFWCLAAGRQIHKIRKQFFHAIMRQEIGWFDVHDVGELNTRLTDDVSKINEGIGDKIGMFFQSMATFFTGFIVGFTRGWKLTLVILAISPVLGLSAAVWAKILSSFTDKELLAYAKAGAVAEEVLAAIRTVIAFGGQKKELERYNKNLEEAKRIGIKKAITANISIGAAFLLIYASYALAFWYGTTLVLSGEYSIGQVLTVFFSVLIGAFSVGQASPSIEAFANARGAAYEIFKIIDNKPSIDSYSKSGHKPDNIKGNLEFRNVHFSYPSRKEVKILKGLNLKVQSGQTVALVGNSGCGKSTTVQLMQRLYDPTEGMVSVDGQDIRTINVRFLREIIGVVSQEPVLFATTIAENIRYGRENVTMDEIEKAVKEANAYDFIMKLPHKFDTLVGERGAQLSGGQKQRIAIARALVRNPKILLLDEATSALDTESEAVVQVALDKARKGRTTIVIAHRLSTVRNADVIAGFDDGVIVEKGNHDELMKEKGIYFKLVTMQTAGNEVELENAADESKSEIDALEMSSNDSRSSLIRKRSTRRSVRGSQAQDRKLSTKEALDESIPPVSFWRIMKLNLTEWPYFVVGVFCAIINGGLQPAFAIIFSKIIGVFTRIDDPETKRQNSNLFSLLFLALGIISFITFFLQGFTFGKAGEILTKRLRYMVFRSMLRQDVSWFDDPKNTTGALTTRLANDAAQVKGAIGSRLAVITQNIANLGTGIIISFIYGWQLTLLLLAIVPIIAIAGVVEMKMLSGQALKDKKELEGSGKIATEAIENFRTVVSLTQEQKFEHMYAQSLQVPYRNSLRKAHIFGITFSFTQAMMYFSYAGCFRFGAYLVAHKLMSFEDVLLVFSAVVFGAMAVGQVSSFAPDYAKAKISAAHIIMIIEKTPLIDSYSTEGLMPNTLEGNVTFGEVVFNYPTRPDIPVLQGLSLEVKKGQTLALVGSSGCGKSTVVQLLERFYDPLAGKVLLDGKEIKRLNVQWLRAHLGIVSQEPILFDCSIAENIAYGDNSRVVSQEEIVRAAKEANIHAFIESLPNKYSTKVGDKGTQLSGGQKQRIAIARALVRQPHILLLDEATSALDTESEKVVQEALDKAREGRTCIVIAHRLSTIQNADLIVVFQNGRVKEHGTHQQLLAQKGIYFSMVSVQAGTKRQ

[3] = Toxicity in male BALB/c nude mouse xenografted with ABCB1 overexpressing human SW620/AD300 cells assessed as body weight loss measured after 14 days in presence of paclitaxel; conditions: 336 h, time 14 day
[4] = Toxicity in male BALB/c nude mouse xenografted with ABCB1 overexpressing human SW620/AD300 cells assessed as body weight loss at 50 mg/kg administered every 3 days and measured after 14 days; format: organism-based; conditions: in vivo, 336 h, time 14 day
[5] = Toxicity in male BALB/c nude mouse xenografted with ABCB1 overexpressing human SW620/AD300 cells assessed as cell necrosis in kidney measured after 14 days in presence of paclitaxel by H and E staining based analysis; format: tissue-based; conditions: 336 h, time 14 day
[6] = Toxicity in male BALB/c nude mouse xenografted with ABCB1 overexpressing human SW620/AD300 cells assessed as cell necrosis in spleen at 50 mg/kg administered every 3 days and measured after 14 days by H and E staining based analysis; format: organism-based; conditions: in vivo, 336 h, time 14 day
[7] = Toxicity in male BALB/c nude mouse xenografted with ABCB1 overexpressing human SW620/AD300 cells assessed as cell necrosis in liver measured after 14 days in presence of paclitaxel by H and E staining based analysis; conditions: 336 h, time 14 day
[8] = Toxicity in male BALB/c nude mouse xenografted with ABCB1 overexpressing human SW620/AD300 cells assessed as cell necrosis in spleen measured after 14 days in presence of paclitaxel by H and E staining based analysis; conditions: 336 h, time 14 day
[9] = Toxicity in male BALB/c nude mouse xenografted with ABCB1 overexpressing human SW620/AD300 cells assessed as cell necrosis in liver at 50 mg/kg administered every 3 days and measured after 14 days by H and E staining based analysis; format: organism-based; conditions: in vivo, 336 h, time 14 day
[10] = Toxicity in male BALB/c nude mouse xenografted with ABCB1 overexpressing human SW620/AD300 cells assessed as cell necrosis in kidney at 50 mg/kg administered every 3 days and measured after 14 days by H and E staining based analysis; format: organism-based; conditions: in vivo, 336 h, time 14 day
[11] = target: T1, ATP-dependent translocase ABCB1; experiment: Inhibition of ABCB1 in human SW620/AD300 cells assessed as accumulation of Rhodamine-123 by measuring fluorescence intensity incubated for 24 hrs by flow cytometric analysis; format: cell-based; conditions: sw620/ad300, 24 h, at 5 to 20 µM, dose 5-20 µM

Structure (SMILES) | Activity (SW620/AD300) [%] | Ratio IC50 [1] | further results
Fc1ccc(-c2nccc3c2[nH]c2ccccc23)cc1 | >80 | 5.3 | 
CCc1nc(C(=O)OC)cc2c1[nH]c1ccccc12 | >80 | 1.3 | 
Oc1ccc(-c2nccc3c2[nH]c2ccccc23)cc1 | >80 | 1.6 | 
CC(C)Cc1nccc2c1[nH]c1ccccc12 | >80 | 3.2 | 
N#Cc1cccc(-c2nccc3c2[nH]c2ccccc23)c1 | >80 | 2.2 | 
N#Cc1ccc(-c2nccc3c2[nH]c2ccccc23)cc1 | >80 | 3.5 | 
Clc1cc(Cl)cc(-c2nccc3c2[nH]c2ccccc23)c1 | >80 | 7.3 | 
FC(F)(F)c1ccc(-c2nccc3c2[nH]c2ccccc23)cc1 | >80 | 3.2 | 
COc1ccc(-c2nccc3c2[nH]c2ccccc23)cc1 | >80 | 37.8 | 
CCc1ccc(-c2nccc3c2[nH]c2ccccc23)cc1 | <80 |  | 
COc1ccc(-c2nccc3c4ccccc4n(C)c23)cc1 |  |  | Activity [2]: Active; Activity [3]: Non-toxic; Activity [4]: Non-toxic; Activity [5]: Non-toxic; Activity [6]: Non-toxic; Activity [7]: Non-toxic; Activity [8]: Non-toxic; Activity [9]: Non-toxic; Activity [10]: Non-toxic; inhibition (INH) [11]: Dose-dependent-effect
CCc1ccc(-c2nccc3c4ccccc4n(CC)c23)cc1 | <80 |  | 
Cc1nc(-c2ccc(-c3nccc4c3[nH]c3ccccc34)cc2)no1 | >80 | 27.5 | 
COc1ccc2[nH]c3c(CC(C)C)nccc3c2c1 | <80 |  | 
Cc1ccc(-c2nccc3c2[nH]c2ccccc23)cc1 | <80 |  | 
CC(C)Cc1nccc2c3ccccc3n(Cc3ccccc3)c12 | >80 | 113.6 | 
CCn1c2ccccc2c2ccnc(-c3ccc(C(F)(F)F)cc3)c21 | >80 | 14.8 | 
CC(C)Cc1nc(C(=O)OCc2ccccc2)cc2c1[nH]c1ccccc12 | >80 | 4 | 
CC(C)Cc1nccc2c3ccccc3n(CC(C)C)c12 | <80 |  | 
CCOC(=O)c1cc2c([nH]c3ccccc32)c(CC(C)C)n1 | >80 | 47.4 | 
Cc1nc(-c2cccc(-c3nccc4c3[nH]c3ccccc34)c2)no1 | >80 | 3.3 | 
COc1ccc(-c2nccc3c4ccccc4n(Cc4ccccc4C)c23)cc1 | <80 |  | 
Cc1cccc2c1[nH]c1c(CC(C)C)nccc12 | <80 |  | 
COc1ccc(-c2nccc3c2[nH]c2c(C)cccc23)cc1 | <80 |  | 

Structure (SMILES) | Activity (SW620/AD300) [%] | Ratio IC50 [1] | further results
CCc1ccc(-c2nccc3c4ccccc4n(Cc4ccc(C(C)C)cc4)c23)cc1 | <80 |  | 
CCC(CC)c1nccc2c1[nH]c1ccccc12 | >80 | 31 | 
COc1ccc(-c2nccc3c4ccccc4n(Cc4ccccc4)c23)cc1 | <80 |  | 
Cn1c2ccccc2c2ccnc(-c3ccc(C(F)(F)F)cc3)c21 | >80 | 25.9 | 
CCc1ccc(-c2nc(C(=O)OCc3ccccc3)cc3c2[nH]c2ccccc23)cc1 | >80 |  | 
CCc1ccc(-c2nc(C(=O)OC)cc3c2[nH]c2ccccc23)cc1 | >80 |  | 
COc1ccc(-c2nccc3c2[nH]c2ccc(OC)cc23)cc1 | <80 |  | 
CCC(CC)c1nccc2c3ccccc3n(CC)c12 | <80 |  | 
COc1ccc(-c2nccc3c2[nH]c2cc(OC)ccc23)cc1 | 80 |  | 
COc1ccc(-c2nccc3c4ccccc4n(Cc4ccc(C)cc4)c23)cc1 | >80 | 25.6 | 
CCC(CC)c1nccc2c1[nH]c1ccc(OC)cc12 | <80 |  | 
COc1ccc(-c2nccc3c4ccccc4n(Cc4ccc(C(C)C)cc4)c23)cc1 | >80 | 26.3 | 
CCc1ccc(-c2nccc3c4ccccc4n(C)c23)cc1 | <80 |  | 
CC(C)c1ccc(-c2nccc3c2[nH]c2ccccc23)cc1 | <80 |  | 
CC(C)Cc1nccc2c3ccccc3n(C)c12 | <80 |  | 
CCc1ccc(-c2nccc3c4ccccc4n(Cc4ccccc4C)c23)cc1 | <80 |  | 
CCn1c2ccccc2c2ccnc(CC(C)C)c21 | <80 |  | 
CCn1c2ccccc2c2ccnc(-c3ccc(OC)cc3)c21 | >80 | 12.3 | 
C#CCn1c2ccccc2c2ccnc(CC(C)C)c21 | >80 | 15.9 | 
COC(=O)c1cc2c([nH]c3ccccc32)c(CC(C)C)n1 | >80 | 2.7 | 
CCc1ccc(-c2nccc3c4ccccc4n(Cc4ccc(C)cc4)c23)cc1 | >80 | 26.6 | 
COc1ccc2c(c1)[nH]c1c(CC(C)C)nccc12 | <80 |  | 
COc1cc(OC)cc(-c2nccc3c2[nH]c2ccccc23)c1 | <80 |  | 
CCC(CC)c1nccc2c3ccccc3n(C)c12 | <80 |  | 
